Structures are written as SMILES. ± gives the expanded uncertainty stated by the source.

For data set [1] the following is noted: Liquid; for mass density: 298.15 K, 101.33 kPa.
A short description of data set [2]: refractive index (Na D-line) (dimensionless). Conditions: 298.15 K; 101.33 kPa; Liquid; Standard Abbe refractometry.

With `CC(C)CC(C)(C)C` [2,2,4-trimethylpentane], the mass density (usually the mass of a sample divided by its volume) in data set [1] was 687.72 ± 0.81 kg/m3. In addition, in data set [1] (372.33 K), the vapor or sublimation pressure – broadly, the equilibrium pressure above the liquid or solid – was found to be 101.32 ± 0.55 kPa. Besides, the refractive index (in general, a measure of how strongly the sample bends light) in data set [2] was determined as 1.38887 ± 0.00072.

With `CC(C)=O` [acetone], in data set [1], the mass density is given as 785.47 ± 0.61 kg/m3. For the same compound, the “vapor or sublimation pressure” value in data set [1] (329.26 K) was 101.32 ± 0.55 kPa. Moreover, the refractive index in data set [2] came to 1.35597 ± 0.00072.

Regarding `CCO` [ethanol], the mass density in data set [1] stood at 785.09 ± 0.62 kg/m3. The “vapor or sublimation pressure” value in data set [1] (351.44 K) is on record as 101.32 ± 0.55 kPa. The refractive index in data set [2] was 1.35926 ± 0.00072.

The values above are taken from the NIST ThermoML archive (doi:10.1016/j.fluid.2005.01.007).
